Measurements: ChEMBL document CHEMBL4052709, “Novel analogs of N-acylhydroxyethylaminomethyl-4H-chromen-4-one scaffold as IL-5 inhibitors” (Bioorg Med Chem, 2017)

Tests used:
[1] = target: T1, Interleukin-5 (Mus musculus) (UniProt P04401); assay: Inhibition of IL-5 in mouse Y16 cells assessed as reduction in cell proliferation at 30 uM after 48 hrs by WST-1 assay relative to control; format: cell-based
T1 sequence (whole entry): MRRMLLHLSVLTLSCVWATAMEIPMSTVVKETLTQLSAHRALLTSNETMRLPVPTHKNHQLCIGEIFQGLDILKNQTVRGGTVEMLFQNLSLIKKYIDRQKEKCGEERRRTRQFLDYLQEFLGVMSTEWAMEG

[2] = target: T1, Interleukin-5 (Mus musculus); assay: Inhibition of IL-5 in mouse Y16 cells assessed as reduction in cell proliferation at 50 uM after 48 hrs by WST-1 assay relative to control; format: cell-based

CC(C)CCOc1cccc2occ(CN(CCO)C(=O)Nc3ccccc3)c(=O)c12
inhibition [1]: 35%

CCOC(=O)N(CCO)Cc1coc2cccc(OCC3CCCCC3)c2c1=O
inhibition [1]: 89%

CC(C)(C)CCOc1cccc2occ(CN(CCO)C(=O)Oc3ccccc3)c(=O)c12
inhibition [1]: 36%

O=C(Nc1ccccc1)N(CCO)Cc1coc2cccc(OCC3CCCCC3)c2c1=O
inhibition [1]: 61%

COc1ccc(NC(=O)N(CCO)Cc2coc3cccc(OCC4CCCCC4)c3c2=O)cc1
inhibition [1]: 80%

O=C(NCCCc1ccccc1)N(CCO)Cc1coc2cccc(OCC3CCCCC3)c2c1=O
inhibition [1]: 95%

O=C(Nc1ccc(Cl)cc1)N(CCO)Cc1coc2cccc(OCC3CCCCC3)c2c1=O
inhibition [1]: 4%

CC(C)CCOc1cccc2occ(CN(CCO)C(=O)Oc3ccccc3)c(=O)c12
inhibition [1]: 42%

CCNC(=O)N(CCO)Cc1coc2cccc(OCC3CCCCC3)c2c1=O
inhibition [1]: 7%

COc1ccc(CC(=O)N(CCO)Cc2coc3cccc(OCC4CCCCC4)c3c2=O)cc1
inhibition [1]: 92%

CC(C)NC(=O)N(CCO)Cc1coc2cccc(OCC3CCCCC3)c2c1=O
inhibition [1]: 6%

O=C(NCc1ccccc1)N(CCO)Cc1coc2cccc(OCC3CCCCC3)c2c1=O
inhibition [1]: 95%

CCCNC(=O)N(CCO)Cc1coc2cccc(OCC3CCCCC3)c2c1=O
inhibition [1]: 15%

CC(C)(C)CCOc1cccc2occ(CN(CCO)C(=O)Cc3ccccc3)c(=O)c12
inhibition [1]: 46%

CC(C)CCOc1cccc2occ(CN(CCO)C(=O)Cc3ccccc3)c(=O)c12
inhibition [1]: 37%

O=C(Cc1ccccc1)N(CCO)Cc1coc2cccc(OCC3CCCCC3)c2c1=O
inhibition [1]: 95%

CCC(=O)N(CCO)Cc1coc2cccc(OCC3CCCCC3)c2c1=O
inhibition [1]: 63%

O=C(NC1CCCCC1)N(CCO)Cc1coc2cccc(OCC3CCCCC3)c2c1=O
inhibition [1]: 85%

O=c1c(-c2ccc(O[C@H]3O[C@@H](CO)[C@H](O)[C@@H](O)[C@@H]3O)cc2)coc2cc(O)cc(O)c12
inhibition [2]: 79.1%

CCCC(=O)N(CCO)Cc1coc2cccc(OCC3CCCCC3)c2c1=O
inhibition [1]: 61%

O=C(Oc1ccccc1)N(CCO)Cc1coc2cccc(OCC3CCCCC3)c2c1=O
inhibition [1]: 84%

CC(C)(C)CCOc1cccc2occ(CN(CCO)C(=O)Nc3ccccc3)c(=O)c12
inhibition [1]: 47%
